Molecular target: T1, WaaC (Escherichia coli, UniProt P24173)
T1 construct: made in house; host or cells: E. coli BL21 double mutant with the heptosyltransferase I and II genes deleted
Assay: WaaC IC50 fluorimetric in vitro heptosyltransferase assay (NADH fluorescence, pyruvate kinase/lactate dehydrogenase coupled)
Assay type: biochemical
Conditions: inhibitory activity on Waac enzymatic activity; 1nM purified WaaC, 3µM Re-LPS, pH 7.0
Protocol: A fluorimetric in vitro assay was set up to quantify the enzymatic activity of purified heptosyl transferase.Said fluorimetic assay is used to identify inhibitors and for measuring IC50 determinations.
WaaC IC50 assays are performed in black 96-well plates (Wallac) in a final volume of 100µL at pH 7.0 comprising: the inhibitor studied dissolved in 2µL DMSO at 10 different concentrations, 50mM HEPES, 10mM MgCl2, 50mM KCl, 0.1% Triton-), 3µM Re-LPS (Sigma, purified from Salmonella Minnesota), 1nM of purified WaaC, 5u/mL Pyruvate kinase (Sigma), 50µM Phosphoenolpyruvate (Sigma), 5u/mL Lactate dehydrogenase (Sigma) and 1.5µM NADH (Sigma). Fluorescence intensity of NADH (λex= 360nm, λem=520nm) is read once before enzyme addition (background), and is followed kinetically afterwards. Initial velocities are determined from the linear phase after background substraction. IC50 curves are fitted to a classical sigmoidal model with Hill slope.

T1 sequence (P24173 whole entry): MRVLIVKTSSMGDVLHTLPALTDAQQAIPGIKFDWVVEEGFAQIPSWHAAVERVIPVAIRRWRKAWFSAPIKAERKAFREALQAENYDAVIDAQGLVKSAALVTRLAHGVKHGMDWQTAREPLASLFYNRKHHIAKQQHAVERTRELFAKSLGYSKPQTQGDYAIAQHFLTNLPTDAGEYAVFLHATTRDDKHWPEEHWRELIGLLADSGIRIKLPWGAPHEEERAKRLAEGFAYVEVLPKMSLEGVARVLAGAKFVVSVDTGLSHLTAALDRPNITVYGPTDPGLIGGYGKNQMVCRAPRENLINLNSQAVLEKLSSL

Adenosine 5'-diphospho-2-Deoxy-2-fluoro-6-L-glycero-β-D-heptoglucopyranoside
IC50: 57 µM
